Measurements reported in patent publication US20100074932A1, “ANTIMICROBIAL COMPOSITIONS CONTAINING GALLIUM” (priority 2006, published 2010).

How the values were obtained:
[1] = on exposure of the coating to body fluid, based on relative solubilities in water
Source text: The differences in the solubility of the different salts in the composition will result in different and prolonged rates of release of the oligodynamic gallium in the coating composition when a device coated with the composition is exposed to body fluid. The amount of water in the final coating solution is about 30% of the total solvent weight.

Escherichia coli 6418 [2] = test: Microbial colonization of hydrogel coated latex foley catheter surface, plate counting; format: cell-based; settings: 0.2 mM gallium nitrate, 48 hours, compared to positive control with no gallium, FIG. 3
Description: After 48 hours, catheter pieces were removed, microorganisms were recovered from the catheter surface and enumerated by plate counting methods.

Escherichia coli 6418 [3] = test: Biofilm formation on catheter after two hours pre-attachment of bacteria, plate counting; format: cell-based; settings: 0.2 mM gallium nitrate, 48 hours, compared to positive control with no gallium, FIG. 4

| SMILES | order of release from the coating composition [1] | microbial colonization of the catheter surface (Escherichia coli 6418 [2]) | biofilm formation (Escherichia coli 6418 [3]) |
| --- | --- | --- | --- |
| CC(=O)[O-].CC(=O)[O-].CC(=O)[O-].[Ga+3] [gallium acetate] | Then |  |  |
| O=[N+]([O-])[O-].O=[N+]([O-])[O-].O=[N+]([O-])[O-].[Ga+3] [gallium nitrate] |  | reduced microbial colonization | reduced biofilm formation |
| [I][Ga]([I])[I] [gallium iodide] | lastly |  |  |
